Laboratory results from article PMC11879040, “Advancing systemic toxicity risk assessment: Evaluation of a NAM-based toolbox approach” (Toxicological Sciences, 2024).
Counter-ions that a name gives are not always drawn. Like-named read-outs stand apart in the source and are kept apart here.

Columns and labels:
[1] = test system: Potassium Voltage-Gated Channel Kv non-selective, KCNQ1 (r); experiment: IPP KCNQ1 binding (antagonist radioligand); parameters: species or system rat
[2] = test system: Gamma-aminobutyric acid receptor subunit alpha-1 BZD site, GABRA1A (r); type: binding, rat; details: control diazepam
[3] = test system: Sodium channel protein type 5 subunit alpha (site 2), SCN5A (r); type: binding, rat
[4] = target: T1, Adenosine receptor A2a, ADORA2A (h) (Homo sapiens, UniProt P29274); experiment: IPP ADORA2A binding (agonist radioligand); details: control NECA
T1 construct: purchased Eurofins Cerep (SafetyScreen44-based IPP panel)

[5] = target: T2, Estrogen receptor, ER1 (h) (Homo sapiens, UniProt P03372); experiment: IPP ER1 coactivator recruitment (agonist); type: biochemical; details: estriol
T2 construct: purchased Eurofins Cerep (SafetyScreen44-based IPP panel)
T2 sequence (P03372 1-595): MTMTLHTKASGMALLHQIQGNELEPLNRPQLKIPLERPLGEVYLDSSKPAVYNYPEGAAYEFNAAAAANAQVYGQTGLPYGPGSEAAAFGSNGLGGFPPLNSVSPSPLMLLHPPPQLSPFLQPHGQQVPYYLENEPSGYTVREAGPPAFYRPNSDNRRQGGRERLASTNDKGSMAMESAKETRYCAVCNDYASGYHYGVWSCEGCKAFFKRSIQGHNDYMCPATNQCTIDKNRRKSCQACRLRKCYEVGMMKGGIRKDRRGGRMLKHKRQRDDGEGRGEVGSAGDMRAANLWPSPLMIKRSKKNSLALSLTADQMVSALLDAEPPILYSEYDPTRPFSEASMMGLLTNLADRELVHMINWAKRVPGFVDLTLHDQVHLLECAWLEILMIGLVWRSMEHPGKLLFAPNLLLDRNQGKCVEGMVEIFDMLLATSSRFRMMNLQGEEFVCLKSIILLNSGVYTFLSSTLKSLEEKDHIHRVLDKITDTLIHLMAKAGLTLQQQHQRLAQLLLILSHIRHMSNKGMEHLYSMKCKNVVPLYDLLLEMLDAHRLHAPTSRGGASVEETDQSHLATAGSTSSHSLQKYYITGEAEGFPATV

[6] = target: T2, Estrogen receptor, ER1 (h); experiment: IPP ER1 coactivator recruitment (antagonist); type: biochemical; details: estriol
[7] = test system: Thyroid hormone receptor alpha, THRA (h); experiment: IPP THRA coactivator recruitment (agonist); type: biochemical, human; details: agonist, T3
Tubulin (r) = experiment: IPP Tubulin binding; parameters: species or system rat
HepG2 cells [8] = experiment: Cell stress panel (CSP), 24 h, 8 concentrations, BIFROST global PoD; type: cell-based; details: HepG2; cell stress panel PoD
Description: Compounds were tested using the previously developed cell stress panel ([Hatherell et al. 2020]) and the expanded biomarker panel outlined in Middleton et al. HepG2 cells were treated with all compounds for 24 h across 8 concentrations prior to biomarker analysis. The same plate layout and number of replicates (3 biological and 2 technical) were used as previously for each assay within the panel.

HepG2 cells [9] = experiment: High-throughput transcriptomics (HTTr, TempO-Seq), HepG2, 24 h; type: cell-based, human; details: HepG2; for pod_httr_bifrost PoD: HTTr BIFROST PoD; for podl_path_minbmd PoD: HTTr minimum pathway BMD(L)
Description: (§1) HepG2, HepaRG, and MCF7 cells were treated with each compound for 24 h across a dose range of 7 concentrations and lysed using TempO-Seq lysis buffer (BioSpyder Technologies, proprietary kit, see [Middleton et al. 2022] for method details). Sequencing was performed using TempO-Seq (BioClavis) version 2 of the human whole transcriptome panel and analyzed as described previously in Middleton et al.

HepaRG cells = experiment: High-throughput transcriptomics (HTTr, TempO-Seq), HepaRG, 24 h; type: cell-based, human; details: HepaRG; for pod_httr_bifrost PoD: HTTr BIFROST PoD; for podl_path_minbmd PoD: HTTr minimum pathway BMD(L)
Description: as §1

MCF7 cells = experiment: High-throughput transcriptomics (HTTr, TempO-Seq), MCF7, 24 h; type: cell-based, human; details: MCF-7; for pod_httr_bifrost PoD: HTTr BIFROST PoD; for podl_path_minbmd PoD: HTTr minimum pathway BMD(L)
Description: as §1

[10] = test system: 63 targets with known safety liabilities; experiment: In vitro pharmacological profiling (IPP) panel, screening at 10 or 100 µM and dose response, minimum IC50/AC50; type: biochemical; details: read-out: ipp_lowest_ac50_systemic PoD
[11] = test system: Glutamate receptor ionotropic NMDA 1 non-selective, GRIN1 (r)
[12] = target: Potassium voltage-gated channel subfamily H member 2 hERG, KCNH2 (h) (Homo sapiens, UniProt Q12809)
[13] = cited from earlier work
[14] = Assignment of risk classifications to benchmark chemical-exposure scenarios; details: Dermal; 15%; Sun lotion; Exp1; from table S1
[15] = target: Voltage-dependent L-type Ca2+ channel (dihydropyridine site), CACNA1C (r) (Rattus norvegicus, UniProt P22002); type: binding
[16] = PBK model plasma Cmax estimate (Gastroplus 9.8; levels L1, L2, L3); parameters: species or system human
[17] = human
rat = details: rat, cited from earlier work
[18] = per chemical see Peff Reference, cited from earlier work
human = details: 1 year human study; ref not given; cited from earlier work
[19] = target: Tyrosine-protein kinase Lck, LCK (h) (Homo sapiens, UniProt P06239); experiment: IPP LCK enzymatic activity; type: biochemical; details: Enzymatic activity; control staurosporine; read-out: IPP Dose Response PoD: LCK
[20] = target: 5-hydroxytryptamine receptor 2B, HTR2B (h) (Homo sapiens, UniProt P41595)
[21] = 100 uM, * denotes assay interference (2-Amino-6-chloro-4-nitrophenol, HC Red 3)
[22] = 10 uM, ligand/control Colchicine
[23] = IPP screening at 10 uM, control CGS 19755

T1 sequence (P29274 whole entry): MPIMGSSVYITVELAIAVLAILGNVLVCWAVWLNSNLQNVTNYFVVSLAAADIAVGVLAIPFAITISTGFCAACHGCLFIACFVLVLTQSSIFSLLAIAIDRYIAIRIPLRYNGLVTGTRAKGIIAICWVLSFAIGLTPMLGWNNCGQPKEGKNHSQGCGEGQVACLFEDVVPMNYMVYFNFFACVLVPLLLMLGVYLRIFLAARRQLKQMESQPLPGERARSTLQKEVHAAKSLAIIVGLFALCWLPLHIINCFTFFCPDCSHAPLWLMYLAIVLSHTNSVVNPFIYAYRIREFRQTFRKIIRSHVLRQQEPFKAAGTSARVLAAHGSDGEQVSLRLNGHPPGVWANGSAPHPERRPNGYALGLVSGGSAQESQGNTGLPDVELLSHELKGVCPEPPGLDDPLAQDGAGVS
Potassium voltage-gated channel subfamily H member 2 hERG, KCNH2 (h), sequence (Q12809 whole entry): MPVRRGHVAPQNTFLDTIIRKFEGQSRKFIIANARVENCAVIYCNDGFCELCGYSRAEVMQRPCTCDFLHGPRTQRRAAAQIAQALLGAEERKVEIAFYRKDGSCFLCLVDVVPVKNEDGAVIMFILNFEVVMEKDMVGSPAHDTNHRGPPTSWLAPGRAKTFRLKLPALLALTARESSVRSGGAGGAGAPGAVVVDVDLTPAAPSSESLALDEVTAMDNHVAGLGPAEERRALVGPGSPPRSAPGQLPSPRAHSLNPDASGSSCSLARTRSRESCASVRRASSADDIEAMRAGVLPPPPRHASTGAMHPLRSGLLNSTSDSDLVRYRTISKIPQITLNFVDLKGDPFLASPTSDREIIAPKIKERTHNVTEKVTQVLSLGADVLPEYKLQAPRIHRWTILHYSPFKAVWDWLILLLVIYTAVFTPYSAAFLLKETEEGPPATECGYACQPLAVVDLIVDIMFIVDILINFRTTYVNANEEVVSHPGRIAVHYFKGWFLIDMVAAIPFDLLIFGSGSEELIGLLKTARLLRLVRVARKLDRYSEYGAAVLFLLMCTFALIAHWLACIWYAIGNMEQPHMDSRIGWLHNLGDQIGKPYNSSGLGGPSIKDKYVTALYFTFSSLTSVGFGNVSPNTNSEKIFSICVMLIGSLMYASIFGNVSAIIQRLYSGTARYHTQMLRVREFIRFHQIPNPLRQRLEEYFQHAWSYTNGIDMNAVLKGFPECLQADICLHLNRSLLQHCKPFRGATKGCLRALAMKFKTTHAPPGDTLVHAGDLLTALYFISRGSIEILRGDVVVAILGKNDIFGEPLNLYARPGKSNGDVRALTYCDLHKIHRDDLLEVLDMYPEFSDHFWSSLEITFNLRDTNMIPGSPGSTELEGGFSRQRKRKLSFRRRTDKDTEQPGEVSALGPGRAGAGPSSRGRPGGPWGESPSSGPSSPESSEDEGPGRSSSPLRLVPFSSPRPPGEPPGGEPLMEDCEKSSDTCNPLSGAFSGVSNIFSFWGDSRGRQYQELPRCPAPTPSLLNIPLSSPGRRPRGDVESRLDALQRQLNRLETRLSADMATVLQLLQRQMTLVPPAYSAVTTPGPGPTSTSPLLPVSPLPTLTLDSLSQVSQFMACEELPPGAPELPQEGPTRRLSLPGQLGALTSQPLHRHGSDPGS
5-hydroxytryptamine receptor 2B, HTR2B (h), sequence (P41595 whole entry): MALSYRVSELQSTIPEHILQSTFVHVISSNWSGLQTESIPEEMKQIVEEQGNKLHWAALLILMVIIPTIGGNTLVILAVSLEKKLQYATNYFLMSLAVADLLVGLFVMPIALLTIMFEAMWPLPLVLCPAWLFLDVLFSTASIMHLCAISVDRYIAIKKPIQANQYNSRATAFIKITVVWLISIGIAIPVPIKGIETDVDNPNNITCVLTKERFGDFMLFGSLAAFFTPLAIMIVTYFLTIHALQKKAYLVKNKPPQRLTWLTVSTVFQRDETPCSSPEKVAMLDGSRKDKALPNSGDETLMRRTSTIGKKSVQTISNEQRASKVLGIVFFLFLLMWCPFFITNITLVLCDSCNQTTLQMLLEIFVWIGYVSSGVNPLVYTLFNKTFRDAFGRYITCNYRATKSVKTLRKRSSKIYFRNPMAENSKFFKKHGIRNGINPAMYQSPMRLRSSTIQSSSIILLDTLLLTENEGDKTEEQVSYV
Voltage-dependent L-type Ca2+ channel (dihydropyridine site), CACNA1C (r), sequence (P22002 whole entry): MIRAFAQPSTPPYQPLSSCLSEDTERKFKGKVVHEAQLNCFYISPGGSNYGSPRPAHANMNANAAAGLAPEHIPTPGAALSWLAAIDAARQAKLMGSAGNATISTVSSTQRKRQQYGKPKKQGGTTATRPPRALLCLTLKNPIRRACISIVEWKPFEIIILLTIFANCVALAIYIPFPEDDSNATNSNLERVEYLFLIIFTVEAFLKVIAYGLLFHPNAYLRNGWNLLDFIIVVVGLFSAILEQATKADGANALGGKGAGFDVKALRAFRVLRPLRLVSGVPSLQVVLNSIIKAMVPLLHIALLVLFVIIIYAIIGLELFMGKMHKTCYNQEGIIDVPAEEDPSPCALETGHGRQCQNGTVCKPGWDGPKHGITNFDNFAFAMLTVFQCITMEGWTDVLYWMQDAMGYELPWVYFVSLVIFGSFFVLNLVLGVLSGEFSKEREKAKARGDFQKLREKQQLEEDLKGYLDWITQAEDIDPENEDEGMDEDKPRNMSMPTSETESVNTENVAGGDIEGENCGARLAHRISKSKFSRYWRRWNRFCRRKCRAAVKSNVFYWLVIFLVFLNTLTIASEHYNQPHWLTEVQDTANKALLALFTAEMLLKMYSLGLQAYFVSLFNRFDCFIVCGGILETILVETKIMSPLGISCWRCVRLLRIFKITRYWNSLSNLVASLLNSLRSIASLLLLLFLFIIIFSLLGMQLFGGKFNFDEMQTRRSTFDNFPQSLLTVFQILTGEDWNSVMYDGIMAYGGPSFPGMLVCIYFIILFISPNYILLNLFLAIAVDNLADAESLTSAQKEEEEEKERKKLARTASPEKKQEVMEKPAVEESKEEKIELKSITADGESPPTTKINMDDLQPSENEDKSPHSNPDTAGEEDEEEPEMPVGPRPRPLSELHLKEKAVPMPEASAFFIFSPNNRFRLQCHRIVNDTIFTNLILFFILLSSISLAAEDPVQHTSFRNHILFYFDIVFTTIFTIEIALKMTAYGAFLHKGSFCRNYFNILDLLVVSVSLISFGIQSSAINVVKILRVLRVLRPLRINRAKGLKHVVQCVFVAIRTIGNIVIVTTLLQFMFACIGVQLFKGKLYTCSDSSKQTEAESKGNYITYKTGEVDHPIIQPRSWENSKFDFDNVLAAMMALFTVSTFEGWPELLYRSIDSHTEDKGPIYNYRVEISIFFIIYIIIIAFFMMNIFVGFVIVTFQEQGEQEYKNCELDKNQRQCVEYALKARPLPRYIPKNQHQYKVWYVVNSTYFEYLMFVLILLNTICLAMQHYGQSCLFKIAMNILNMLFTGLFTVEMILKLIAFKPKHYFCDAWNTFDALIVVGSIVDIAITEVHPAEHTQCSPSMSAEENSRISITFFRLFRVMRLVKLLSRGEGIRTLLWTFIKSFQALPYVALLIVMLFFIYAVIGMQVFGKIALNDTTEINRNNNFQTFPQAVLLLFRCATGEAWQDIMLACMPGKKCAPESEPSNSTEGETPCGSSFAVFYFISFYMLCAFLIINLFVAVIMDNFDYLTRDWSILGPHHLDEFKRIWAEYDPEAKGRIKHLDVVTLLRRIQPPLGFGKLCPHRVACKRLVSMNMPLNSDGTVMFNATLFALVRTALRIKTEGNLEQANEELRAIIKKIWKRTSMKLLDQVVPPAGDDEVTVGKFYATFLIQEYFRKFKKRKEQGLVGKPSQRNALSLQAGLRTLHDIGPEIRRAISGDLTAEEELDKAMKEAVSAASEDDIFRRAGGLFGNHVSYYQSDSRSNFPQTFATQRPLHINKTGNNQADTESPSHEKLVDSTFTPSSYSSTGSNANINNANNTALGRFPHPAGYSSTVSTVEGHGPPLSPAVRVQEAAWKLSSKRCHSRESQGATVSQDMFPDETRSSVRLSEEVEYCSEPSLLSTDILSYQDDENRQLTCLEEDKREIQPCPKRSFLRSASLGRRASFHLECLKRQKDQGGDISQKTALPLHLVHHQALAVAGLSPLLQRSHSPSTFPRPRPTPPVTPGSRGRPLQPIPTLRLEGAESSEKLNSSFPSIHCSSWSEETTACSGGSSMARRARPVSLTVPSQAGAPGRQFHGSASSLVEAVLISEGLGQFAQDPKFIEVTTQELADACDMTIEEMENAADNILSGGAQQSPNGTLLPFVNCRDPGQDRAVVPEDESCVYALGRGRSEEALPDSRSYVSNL
Tyrosine-protein kinase Lck, LCK (h), sequence (P06239 whole entry): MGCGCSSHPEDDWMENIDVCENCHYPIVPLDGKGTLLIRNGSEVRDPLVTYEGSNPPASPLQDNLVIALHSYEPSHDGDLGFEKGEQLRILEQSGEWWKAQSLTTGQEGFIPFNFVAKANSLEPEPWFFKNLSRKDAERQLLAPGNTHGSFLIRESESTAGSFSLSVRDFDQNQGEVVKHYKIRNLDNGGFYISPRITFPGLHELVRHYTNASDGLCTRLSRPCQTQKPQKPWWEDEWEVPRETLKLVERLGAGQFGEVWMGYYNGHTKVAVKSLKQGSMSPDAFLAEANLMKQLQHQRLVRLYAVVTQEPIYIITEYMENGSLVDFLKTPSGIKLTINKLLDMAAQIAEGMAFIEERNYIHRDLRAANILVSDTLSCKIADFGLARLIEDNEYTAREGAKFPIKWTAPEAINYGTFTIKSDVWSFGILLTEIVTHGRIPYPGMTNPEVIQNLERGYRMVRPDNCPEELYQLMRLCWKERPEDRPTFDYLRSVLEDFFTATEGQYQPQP

CCN(CC)C(=O)c1cccc(C)c1 [DEET, N,N-Diethyl-3-methylbenzamide]
Specific binding ([1]; IPP screening at 100 uM, control α-dendrotoxin): -4.9% | Specific binding ([2]; IPP screening at 100 uM): 8.9% | Specific binding ([3]; IPP screening at 100 uM, control veratridine): 11.7% | Specific binding ([4]; IPP screening at 100 uM): 20.5% | IPP screening %, Coactivator recruitment [5, 21]: 2.0% | IPP screening %, Coactivator recruitment [6, 21]: 0.0% | IPP screening %, Coactivator recruitment [7, 21]: 0.0% | IPP screening %, Specific binding (Tubulin (r); 100 uM, ligand/control Colchicine): -14.0% | pod_cell_stress PoD (HepG2 cells [8]): 29.817 µM | pod_httr_bifrost PoD (HepG2 cells [9]): 16.9912 µM | podl_path_minbmd PoD (HepG2 cells [9]): 582.029 µM | pod_httr_bifrost PoD (HepaRG cells): 24.7921 µM | podl_path_minbmd PoD (HepaRG cells): 567.13 µM | pod_httr_bifrost PoD (MCF7 cells): 67.2542 µM | podl_path_minbmd PoD (MCF7 cells): 670.53 µM | AC50 ([10]; lowest AC50 across IPP panel (systemic targets), cell_type -): 53.7 µM | Specific binding ([11]; IPP screening at 100 uM, control CGS 19755): 4.4% | IPP screening %, Specific binding ([12]; 100 uM, [3H] Dofetilide, control Terfenadine): -12.0% | NOAEL ([13]; 2-gen study, alpha-2-u nephropathy not relevant for humans, ref https://doi.org/10.1016/B978-0-12-374367-1.00098-7): Lowest human-relevant NOAEL was from a subchronic study. NOAEL of 25 mkd from 2-gen study appears to be based on alpha-2-u nephropathy which is not relevant for humans (https://doi.org/10.1016/B978-0-12-374367-1.001-7) | PoD (NOAEL) ([13]; species '-', 364 days, ref ToxRefDB/Paul-Friedman et al. (2020)/regulatory opinions): 100 mg/kg bw/day | risk [14]: 0

C[C@H]1O[C@@H](O[C@H]2[C@@H](O)C[C@H](O[C@H]3[C@@H](O)C[C@H](O[C@H]4CC[C@@]5(C)[C@H](CC[C@@H]6[C@@H]5C[C@@H](O)[C@]5(C)[C@@H](C7=CC(=O)OC7)CC[C@]65O)C4)O[C@@H]3C)O[C@@H]2C)C[C@H](O)[C@@H]1O [Digoxin, 3beta-{[2,6-Dideoxy-beta-D-ribo-hexopyranosyl-(1->4)-2,6-dideoxy-beta-D-ribo-hexopyranosyl-(1->4)-2,6-dideoxy-beta-D-ribo-hexopyranosyl]oxy}-12beta,14-dihydroxy-5beta-card-20(22)-enolide]
Specific binding [15]: 0.7% | Specific binding [1]: -2.7% | Specific binding ([2]; IPP screening at 10 uM): 11.3% | Specific binding [3]: 19.6% | Specific binding ([4]; IPP screening at 10 uM): 26.2% | IPP screening %, Coactivator recruitment ([7]; 10 uM): 1.0% | IPP screening %, Specific binding (Tubulin (r); [22]): -7.0% | pod_cell_stress PoD (HepG2 cells [8]): 0.0001773 µM | pod_httr_bifrost PoD (HepG2 cells [9]): 0.007046 µM | podl_path_minbmd PoD (HepG2 cells [9]): 0.02695 µM | pod_httr_bifrost PoD (HepaRG cells): 0.01449 µM | podl_path_minbmd PoD (HepaRG cells): 0.04151 µM | pod_httr_bifrost PoD (MCF7 cells): 0.003833 µM | podl_path_minbmd PoD (MCF7 cells): 0.02134 µM | L2 Cmax estimate underprediction of the L3 plasma Cmax ([16]; largest of any underprediction, printed with ∼): 30- to 50 fold | underprediction of the L3 result at L2 (Cmax) ([16]; therapeutic uses): ≥ 5 fold | Specific binding [11, 23]: -2.6% | IPP screening %, Specific binding ([12]; human): -6.2%

NS(=O)(=O)c1cc(C(=O)O)c(NCc2ccco2)cc1Cl [Furosemide, 4-Chloro-2-{[(furan-2-yl)methyl]amino}-5-sulfamoylbenzoic acid]
Specific binding ([4]; IPP screening at 100 uM): 15.2% | IPP screening %, Coactivator recruitment [7, 21]: -1.0% | IPP screening %, Specific binding (Tubulin (r)): -4.0% | pod_cell_stress PoD (HepG2 cells [8]): 2.832 µM | pod_httr_bifrost PoD (HepG2 cells [9]): 3.253 µM | podl_path_minbmd PoD (HepG2 cells [9]): 177.032 µM | pod_httr_bifrost PoD (HepaRG cells): 0.2929 µM | podl_path_minbmd PoD (HepaRG cells): 1.613 µM | pod_httr_bifrost PoD (MCF7 cells): 72.7631 µM | podl_path_minbmd PoD (MCF7 cells): 520.886 µM | AC50 [10]: 1.38 µM | Specific binding [11]: 5.8% | risk [17]: 1 | PoD (NOEL) (rat; chronic, ref NTP study): 46.9 mg/kg bw/day | Peff ([18]; PBK level L2, ref [3],[4],[11]): 0.41 cm/s x E-04 | Peff ([18]; PBK level L3, ref [4],[11]): 0.41 cm/s x E-04

O=CCCCC=O [Glutaraldehyde, Pentanedial]
Specific binding ([1]; IPP screening at 10 uM, control α-dendrotoxin): 5.2% | Specific binding ([2]; IPP screening at 10 uM): -5.0% | Specific binding ([3]; IPP screening at 10 uM, control veratridine): 13.2% | Specific binding ([4]; IPP screening at 10 uM): -3.4% | IPP screening %, Coactivator recruitment ([5]; 10 uM): 2.0% | IPP screening %, Coactivator recruitment ([6]; 10 uM): -9.0% | IPP screening %, Coactivator recruitment ([7]; 10 uM): 3.0% | Specific binding [11, 23]: -4.1% | IPP screening %, Specific binding ([12]; 10 uM, [3H] Dofetilide, control Terfenadine): -1.1% | risk [17]: 0 | PoD (NOAEL) (rat; 7 days, ref ToxRefDB/Paul-Friedman et al. (2020)/regulatory opinions): 1 mg/kg bw/day | NOAEL (human): The lowest NOAEL from a rat repeat-dose study. Not there is also a 1 year human study with a NOAEL of 3 mkd.

COc1ccc(CCN(C)CCCC(C#N)(c2ccc(OC)c(OC)c2)C(C)C)cc1OC (stereo not shown) [Verapamil Hydrochloride, 2-(3,4-Dimethoxyphenyl)-5-{[2-(3,4-dimethoxyphenyl)ethyl](methyl)amino}-2-(propan-2-yl)pentanenitrile--hydrogen chloride (1/1)]
Specific binding [1]: 4.7% | Specific binding ([2]; IPP screening at 10 uM): -6.7% | Specific binding [3]: 74.6% | IC50 [19]: > 35.8 µM | IPP screening %, Coactivator recruitment ([7]; 10 uM): 1.0% | IPP screening %, Specific binding (Tubulin (r); [22]): 13.0% | pod_cell_stress PoD (HepG2 cells [8]): 0.6383 µM | Specific binding [11, 23]: 2.5% | leading IPP PoD (target) [20]: antagonism of the serotonin 2B receptor
